Source: patent US6586393B2, “Antibiotics GE 23077, pharmaceutically acceptable salts and compositions, and use thereof” (priority 2000, dated 2003)
pIC50: −log10 of the molar value. Like-named read-outs stand apart in the source and are kept apart here.

Experiments:
[1] = molecular target: T1, E. coli RNA polymerase (Escherichia coli, UniProt P0A8T7+P0A8V2); test: Inhibition of RNA polymerase, cell free transcription assay (3H-UTP incorporation); assay type: biochemical; settings: 37° C., 15 minutes; for pIC50: IC50 of E. coli RNA polymerase
T1 construct: purchased Epicentre Technology; Madison Wis
T1 sequence (P0A8V2 whole entry): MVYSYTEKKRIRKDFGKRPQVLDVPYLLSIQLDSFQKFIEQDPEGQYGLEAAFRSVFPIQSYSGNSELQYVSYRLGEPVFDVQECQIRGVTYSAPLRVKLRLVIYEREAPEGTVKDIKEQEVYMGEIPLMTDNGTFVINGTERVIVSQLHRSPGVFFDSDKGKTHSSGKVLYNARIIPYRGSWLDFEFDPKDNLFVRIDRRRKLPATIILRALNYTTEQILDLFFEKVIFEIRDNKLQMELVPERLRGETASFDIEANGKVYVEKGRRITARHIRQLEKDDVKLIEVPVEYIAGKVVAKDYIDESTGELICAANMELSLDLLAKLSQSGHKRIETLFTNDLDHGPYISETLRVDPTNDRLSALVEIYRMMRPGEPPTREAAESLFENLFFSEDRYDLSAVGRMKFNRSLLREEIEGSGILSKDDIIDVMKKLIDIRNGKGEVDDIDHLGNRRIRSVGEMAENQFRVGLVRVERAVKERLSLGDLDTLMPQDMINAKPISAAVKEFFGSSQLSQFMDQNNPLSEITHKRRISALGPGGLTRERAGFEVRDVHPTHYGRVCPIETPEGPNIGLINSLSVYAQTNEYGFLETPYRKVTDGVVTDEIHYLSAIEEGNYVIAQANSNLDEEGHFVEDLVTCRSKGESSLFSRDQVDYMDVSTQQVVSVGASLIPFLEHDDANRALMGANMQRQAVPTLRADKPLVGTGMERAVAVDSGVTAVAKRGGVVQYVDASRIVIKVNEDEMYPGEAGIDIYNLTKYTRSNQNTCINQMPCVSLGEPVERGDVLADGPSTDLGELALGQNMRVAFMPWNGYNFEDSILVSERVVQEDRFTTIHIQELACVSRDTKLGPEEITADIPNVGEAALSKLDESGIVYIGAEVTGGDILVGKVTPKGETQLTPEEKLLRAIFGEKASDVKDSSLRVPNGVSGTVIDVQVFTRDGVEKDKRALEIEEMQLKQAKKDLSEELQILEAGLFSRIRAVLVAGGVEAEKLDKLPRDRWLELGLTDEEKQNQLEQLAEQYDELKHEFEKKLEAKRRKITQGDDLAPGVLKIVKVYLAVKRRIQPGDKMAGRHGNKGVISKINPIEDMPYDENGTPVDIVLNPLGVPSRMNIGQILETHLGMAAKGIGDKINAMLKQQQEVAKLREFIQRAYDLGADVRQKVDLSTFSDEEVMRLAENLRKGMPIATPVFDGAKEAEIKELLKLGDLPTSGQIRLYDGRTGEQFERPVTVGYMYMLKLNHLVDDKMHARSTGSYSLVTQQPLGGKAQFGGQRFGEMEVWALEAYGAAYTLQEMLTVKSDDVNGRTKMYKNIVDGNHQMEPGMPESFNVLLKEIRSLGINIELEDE
T1 sequence (P0A8T7 whole entry): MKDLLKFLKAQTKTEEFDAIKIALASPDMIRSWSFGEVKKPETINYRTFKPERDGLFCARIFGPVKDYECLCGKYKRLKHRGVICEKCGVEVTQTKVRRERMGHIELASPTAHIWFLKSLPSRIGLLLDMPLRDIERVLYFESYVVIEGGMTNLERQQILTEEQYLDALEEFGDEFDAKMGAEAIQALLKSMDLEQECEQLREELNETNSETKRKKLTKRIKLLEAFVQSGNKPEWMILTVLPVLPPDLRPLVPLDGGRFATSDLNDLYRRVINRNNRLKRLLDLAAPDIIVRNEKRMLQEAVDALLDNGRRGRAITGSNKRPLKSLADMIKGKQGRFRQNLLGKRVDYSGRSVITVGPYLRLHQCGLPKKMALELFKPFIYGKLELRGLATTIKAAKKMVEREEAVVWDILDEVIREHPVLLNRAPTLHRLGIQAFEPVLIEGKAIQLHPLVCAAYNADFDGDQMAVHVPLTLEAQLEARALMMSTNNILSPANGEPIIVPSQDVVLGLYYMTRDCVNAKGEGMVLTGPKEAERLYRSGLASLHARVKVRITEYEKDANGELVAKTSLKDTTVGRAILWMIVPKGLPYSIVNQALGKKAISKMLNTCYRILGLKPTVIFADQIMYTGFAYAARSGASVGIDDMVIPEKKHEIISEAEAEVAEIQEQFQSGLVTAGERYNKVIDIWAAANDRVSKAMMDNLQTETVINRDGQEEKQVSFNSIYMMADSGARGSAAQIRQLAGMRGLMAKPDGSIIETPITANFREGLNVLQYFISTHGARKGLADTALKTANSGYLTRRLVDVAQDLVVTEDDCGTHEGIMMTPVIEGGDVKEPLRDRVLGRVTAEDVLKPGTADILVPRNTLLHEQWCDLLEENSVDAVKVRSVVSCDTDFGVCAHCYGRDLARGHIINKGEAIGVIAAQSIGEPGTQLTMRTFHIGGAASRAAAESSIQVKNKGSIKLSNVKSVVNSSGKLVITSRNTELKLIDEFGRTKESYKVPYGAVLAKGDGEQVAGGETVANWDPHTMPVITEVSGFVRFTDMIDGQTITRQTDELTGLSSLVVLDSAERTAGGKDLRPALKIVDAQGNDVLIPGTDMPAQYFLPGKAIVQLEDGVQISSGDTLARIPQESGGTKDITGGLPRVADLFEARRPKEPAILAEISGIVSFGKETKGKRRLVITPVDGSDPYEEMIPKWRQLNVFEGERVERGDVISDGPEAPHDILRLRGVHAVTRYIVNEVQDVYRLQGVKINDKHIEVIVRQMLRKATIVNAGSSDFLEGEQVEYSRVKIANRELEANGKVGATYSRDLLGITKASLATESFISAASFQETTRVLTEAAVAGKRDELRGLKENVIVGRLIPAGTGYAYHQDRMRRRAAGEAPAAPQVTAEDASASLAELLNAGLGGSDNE
T1 sequence (P0A7Z4 whole entry partner): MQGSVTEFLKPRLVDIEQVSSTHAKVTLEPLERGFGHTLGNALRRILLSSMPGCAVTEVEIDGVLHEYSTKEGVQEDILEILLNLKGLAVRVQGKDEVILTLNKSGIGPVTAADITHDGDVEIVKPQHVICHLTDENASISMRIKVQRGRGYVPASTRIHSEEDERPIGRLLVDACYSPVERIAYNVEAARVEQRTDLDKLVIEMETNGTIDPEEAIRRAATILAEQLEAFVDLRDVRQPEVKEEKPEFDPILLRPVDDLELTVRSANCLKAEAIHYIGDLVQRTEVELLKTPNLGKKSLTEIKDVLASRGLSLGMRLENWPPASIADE
T1 sequence (P0A800 whole entry partner): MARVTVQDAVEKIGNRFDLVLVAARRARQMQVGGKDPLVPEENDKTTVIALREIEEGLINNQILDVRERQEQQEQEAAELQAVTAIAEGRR
Experimental: The inhibition of RNA polymerase was determined in a cell free transcription assay performed in standard U-bottom 96-well plates. The [H^3]-UTP incorporation in RNA was measured in the material precipitated upon addition of trichloroacetic acid (TCA). The reaction mixture contained 50 mM Tris-HCl (pH8), 50 mM KCl, 10 mM MgCl2, 0.1 mM EDTA, 5 mM dithiothreitol (DTT), 10 μg/ml BSA, 20: g/ml calf thymus DNA, 1 mM ATP, 1 mM CTP, 1 mM GTP, 0.5 mCi ^3H-UTP and 0.5 U of E. coli RNA polymerase enzyme (Epicentre Technology; Madison Wis.). 5 μl of the tested solution were added to 45 μl of reaction mixture, incubated at 37° C. for 15 minutes and then quenched with 150 μl of ice-cold 10% (w/v) TCA. After 30 min in ice, the well content was collected on glass-fiber filters (Filtermat A, Wallac) using a 96 wells cell harvester (Wallac) and radioactivity was determined in a β-Plate scintillation counter (Wallac). Count per min (CPM) values are transformed in % of RNA polymerase inhibition by using the following formula:
% of RNA polymerase=100−[(CPM compound−CPM blank)/(CPM control−CPM blank)]*100
where: CPM compound is CPM in well with compound; CPM blank is CPM average in wells without enzyme template and CPM control is CPM average in wells without compound.

[2] = tested on: M. catarrhalis; test: Activity of concentrated HPLC fractions of the complex against M. catarrhalis; assay type: cell-based, Moraxella catarrhalis; settings: eluates of HPLC fractionation of the complex, concentrated under vacuum
[3] = Conversion of factors A2 and B2 into A1 and B1 in DMSO (NMR); assay type: physicochemical; settings: room temperature
Excerpt: The GE23077 complex is constituted of two couples of isomers: factors A1, A2 and factors B1, B2. It was observed that the individual pure Factor A1 and Factor A2, when kept in water solution or in mixtures of water miscible solvents and water solutions, reach an equilibrium state between them. […] The equilibration rate was accelerated at acidic and basic pHs. […] Accordingly, if recorded after complete conversion, the spectra relating to factors A2 and B2 correspond to the ones of the factors A1 and B1, respectively.

## CC=C(C)C(=O)NCC1NC(=O)C(C(=O)O)NC(=O)C(O)CNC(=O)C(C(C)O)NC(=O)C(C(O)C(O)C(N)=O)NC(=O)C(C(C)C)NC(=O)C(CO)NC1=O (single isomer, unassigned) [Factor A1]
[1]
  pIC50: 6.73
[2]
  Inhibition of M. catarrhalis by HPLC fractions containing the separated factors: inhibited the test microorganism

## CC=C(C)C(=O)NCC1NC(=O)C(C(=O)O)NC(=O)C(O)CNC(=O)C(C(C)O)NC(=O)C(C(O)C(O)C(N)=O)NC(=O)C(C(C)C)NC(=O)C(CO)NC1=O (single isomer, unassigned) [Factor A2]
[1]
  pIC50: 7.36
[2]
  Inhibition of M. catarrhalis by HPLC fractions containing the separated factors: inhibited the test microorganism
[3]
  Time for full conversion into factor A1 / B1: 12 h

## CC(C)CC(=O)NCC1NC(=O)C(C(=O)O)NC(=O)C(O)CNC(=O)C(C(C)O)NC(=O)C(C(O)C(O)C(N)=O)NC(=O)C(C(C)C)NC(=O)C(CO)NC1=O (single isomer, unassigned) [Factor B1]
[1]
  pIC50: 6.91
[2]
  Inhibition of M. catarrhalis by HPLC fractions containing the separated factors: inhibited the test microorganism

## CC(C)CC(=O)NCC1NC(=O)C(C(=O)O)NC(=O)C(O)CNC(=O)C(C(C)O)NC(=O)C(C(O)C(O)C(N)=O)NC(=O)C(C(C)C)NC(=O)C(CO)NC1=O (single isomer, unassigned) [Factor B2]
[1]; read-out: IC50 of E. coli RNA polymerase (converted)
  IC50: 0.0248 µM
[2]
  Inhibition of M. catarrhalis by HPLC fractions containing the separated factors: inhibited the test microorganism
[3]
  Time for full conversion into factor A1 / B1 (in words): few minutes
